The values below come from patent US10493077B2, “Fused imidazo-piperidine JAK inhibitor compound” (THERAVANCE BIOPHARMA R&D IP, LLC, priority 2017, dated 2019).

Each structure is given as a SMILES string. Where two headings read alike, the source gives them in different places.

For one series, the target named is T1, AURKA (Homo sapiens, UniProt O14965).
T1 construct: made in house; host or cells: T7 phage in E. coli (BL21-derived) or HEK-293
In words: Kinome screen, AURKA. In kind it is binding. To be noted: screened at 1 μM. On the procedure:
Kinase-tagged T7 phage strains were grown in parallel in 24-well blocks in an E. coli host derived from the BL21 strain. E. coli were grown to log-phase and infected with T7 phage from a frozen stock (multiplicity of infection=0.4) and incubated with shaking at 32° C. until lysis (90-150 minutes). The lysates were centrifuged (6,000×g) and filtered (0.2 μm) to remove cell debris. The remaining kinases were produced in HEK-293 cells and subsequently tagged with DNA for qPCR detection.
Streptavidin-coated magnetic beads were treated with biotinylated small molecule ligands for 30 minutes at room temperature to generate affinity resins for kinase assays. The liganded beads were blocked with excess biotin and washed with blocking buffer (SeaBlock (Pierce), 1% BSA, 0.05% Tween 20, 1 mM DTT) to remove unbound ligand and to reduce non-specific phage binding. […] Test compounds were prepared as 40× stocks in 100% DMSO and directly diluted into the assay. All reactions were performed in polypropylene 384-well plates in a final volume of 0.04 ml. […] The beads were then re-suspended in elution buffer (1×PBS, 0.05% Tween 20, 0.5 μM non-biotinylated affinity ligand) and incubated at room temperature with shaking for 30 minutes. The kinase concentration in the eluates was measured by qPCR.

Series [1] in a line: Lung and plasma pharmacokinetics in mice. To be noted: BALB/c mice, Form 1 suspension 0.1 mg/mL, 50 μL by oral aspiration. The series is classed as in vivo, mouse. The method, then:
Plasma and lung concentrations of compound 1 and ratios thereof were determined in the following manner. BALB/c mice from Charles River Laboratories were used in the assay. Compound 1 Form 1 of example 2 was formulated in 0.01% Tween 80 in normal saline (0.9% sodium chloride in water) at a concentration of 0.1 mg/mL as a suspension. 50 μL of the suspension formulation was introduced into the trachea of a mouse by oral aspiration. At various time points (0.083, 1, 4, 24, 48, 72, and 96 hr). Post dosing, blood samples were removed via cardiac puncture and intact lungs were excised from the mice. Blood samples were centrifuged (Eppendorf centrifuge, 5804R) for 4 minutes at approximately 12,000 rpm at 4° C. to collect plasma. Lungs were padded dry, weighed, and homogenized at a dilution of 1:3 in sterile water. Plasma and lung concentrations of compound 1 were determined by LC-MS analysis against analytical standards constructed into a standard curve in the test matrix. […] The lung half-life was calculated at approximately 40 hours. The lung to plasma ratio was determined as the ratio of the lung AUC in μg hr/g to the plasma AUC in μg hr/mL (where AUC is conventionally defined as the area under the curve of test compound concentration vs. time).

Series [2] has as its system IL-6, IL-2, and IFNγ signaling. In words: Cellular assays of Assays 3 to 6 (summary statement). The note with it: Homo sapiens, cellular assays described in Assays 3 to 6. The series is classed as cell-based. On the procedure: The potency of the test compound for inhibition of interleukin-2 (IL-2)/anti-CD3 stimulated interferon gamma (IFNγ) was measured in human peripheral blood mononuclear cells (PBMCs) isolated from human whole blood (Stanford Blood Center). Because IL-2 signals through JAK, this assay provides a measure of JAK cellular potency.
The potency of the test compound for inhibition of interleukin-2 (IL-2)/anti-CD3 stimulated STAT5 phosphorylation was measured in CD4-positive (CD4+) T cells in human peripheral blood mononuclear cells (PBMCs) isolated from human whole blood (Stanford Blood Center) using flow cytometry. Because IL-2 signals through JAK, this assay provides a measure of JAK cellular potency.
The potency of the test compound for inhibition of interleukin-6 (IL-6) stimulated CCL2 (MCP-1) production was measured in human peripheral blood mononuclear cells (PBMCs) isolated from human whole blood (Stanford Blood Center). Because IL-6 signals through JAK, this assay provides a distal measure of JAK cellular potency.
The potency of the test compound for inhibition of interferon gamma (IFNγ) stimulated STAT1 phosphorylation was measured in CD14-positive (CD14+) monocytes derived from human whole blood (Stanford Blood Center) using flow cytometry. Because IFNγ signals through JAK, this assay provides a measure of JAK cellular potency.

Series [3] is described as follows: Dermal pharmacokinetics in mouse skin. The series is classed as in vivo. To be noted: mice, model cream and ointment formulations, without detectable plasma exposure. The source says: The objective of this assay was to determine the epidermal, dermal and plasma pharmacokinetics of a test compound following a 24 hr exposure to intact mouse or mini-pig skin.
Twenty-four hours prior to dosing the hair was shaved from the back of 25 g male Balb/c mice exposing an area at of least 6 cm^2 (about 10% of body surface) and, in a separate experiment, of 10 kg Gottingen mini-pigs exposing an area of at least 450 cm^2 (about 10% of body surface). At time zero, following isoflurane anesthesia, the test compound was applied to the back of mice or mini-pigs at a dose of 25 μL/cm^2. The skin was covered with an adhesive cover to prevent loss of compound to the cage or bedding.
Following 24 h exposure, the backs were gently washed with soap and water to remove non-absorbed drug and patted dry. Immediately following this washing, blood was drawn by cardiac puncture from the mice and via venipuncture from the mini-pigs. The outer skin (stratum corneum) was then removed by adhesive tape stripping. Upon exposure of the epidermis a 0.5 cm punch biopsy was taken. The epidermis and dermis were quickly separated, weighed and snap frozen. […]
Epidermis and dermis samples were homogenized in 1:10 (w/v) water using a Covaris ultrasonic homogenizer. Samples were extracted in 3 volumes of acetonitrile and quantified against a standard curve via LC-MS analysis.

T1 sequence (O14965 whole entry): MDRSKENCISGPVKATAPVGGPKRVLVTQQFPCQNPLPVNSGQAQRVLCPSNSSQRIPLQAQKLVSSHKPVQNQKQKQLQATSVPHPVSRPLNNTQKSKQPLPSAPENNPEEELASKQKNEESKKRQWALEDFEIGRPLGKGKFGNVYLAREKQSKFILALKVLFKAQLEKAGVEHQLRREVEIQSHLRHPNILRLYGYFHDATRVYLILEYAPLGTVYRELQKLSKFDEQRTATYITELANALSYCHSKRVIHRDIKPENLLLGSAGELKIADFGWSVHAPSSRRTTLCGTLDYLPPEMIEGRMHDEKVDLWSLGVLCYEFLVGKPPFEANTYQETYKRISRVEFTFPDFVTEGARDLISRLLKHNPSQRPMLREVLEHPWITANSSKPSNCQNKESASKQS

As to `CCc1cc(O)c(F)cc1-c1cc(F)c2c(-c3nc4c([nH]3)CCN(C(=O)CN3CCOCC3)C4)n[nH]c2c1` [Compound 1, 1-(2-(6-(2-ethyl-5-fluoro-4-hydroxyphenyl)-4-fluoro-1H-indazol-3-yl)-1,4,6,7-tetrahydro-5H-imidazo[4,5-c]pyridin-5-yl)-2-morpholinoethan-1-one], the inhibition at 1 µM on AURKA amounted to 11%. Also, in series [1], the “lung AUC (0-96 hr)” value is 360 µg·h/g. The Kp in series [1] (mouse, lung and plasma, 5 μg/mouse, read-out: lung to plasma AUC ratio) was determined as 1780. In addition, the half-life in series [1] (mouse, lung, 5 μg/mouse) was roughly 40 h. In addition, the IC50 in series [2] (read-out: IC50 for inhibition of IL-6, IL-2, and IFNγ signaling) is no more than 400 nM; in series [2] (read-out: pIC50 for inhibition of IL-6, IL-2, and IFNγ signaling (converted)) it was no more than 398 nM. In series [3], the “duration of sustained dermal levels” value is on record as “at least 2 days”.
